Source: US20090208462A1, “Methods of Treatment” (IMPERIAL INNOVATIONS LIMITED, priority 2004, published 2009)
Entries after “also recorded” stand apart in the source; their conditions may differ. Blank lines part the entries; values can stand above or below the molecule they belong to.

Legend:
[1] = test system: melanopsin transduction cascade; assay: Properties of the melanopsin transduction cascade: drug effects on light evoked current; format: cell-based, mouse; settings: for effect on light induced current / effect on photoresponses / effect on light evoked current: 420 nm 10 sec; for effect on light induced current / effect on photoresponses / effect on light evoked currents / effect on light evoked current: 9-cis retinal 20 μM; for effect on light evoked currents: 420 nm 10 sec 8×10^14 photons/cm^2/s
Procedure: (§1) Mouse Neuro-2a cells (American Type Culture Collection; Cat no. CCL-131) were maintained at 37° C. in D-MEM, Dulbecco's Modified Eagle Medium with GlutaMAX™ I, 4500 mg/l D-Glucose, Sodium Pyruvate (D-MEM, Invitrogen) with 10% foetal bovine serum, 1% non-essential amino acids and 20 μg/ml gentomycin in a 5% CO2 atmosphere. Cells were trypsintsed, split and cultured at 1×10^5/ml in 90 mm dishes for 24 hours prior to transfection with plasmid vectors using lipofectamine (Invitrogen) in serum-free medium. DNA to lipid ratio was 10 μg DNA: 100 μg lipid. After transfection serum free medium was replaced with normal medium. On the following day, 2-3 days before study, cell differentiation was induced using 10 μM retinoic acid (Provencio et al., 2000). Starting from this point cells were kept in darkness. On the day of recording, glass coverslips serving as a substrate for cell attachment were transferred to the recording chamber. The perfusion solution contained 140 mM NaCl, […], 1 mM MgCl2, 2 mM CaCl2, 5 mM glucose, 10 mM HEPES (pH 7.3-7.4; 24° C.). Successfully transfected cells were identified by EGFP fluorescence under a 480 nm stimulus light using an OLYMPUS BX51WI microscope. At this point, retinal isoforms (20 μM; 9-cis and all-trans from Sigma-Aldrich; 11-cis from Dr R K Crouch, Medical University of S.C.) were added to the perfusion solution as necessary and cells kept in the dark for at least 1 hour before recording. Whole-cell patch-clamp recordings were made with pipettes containing 140 mM KCl, 10 mM NaCl, 1 mM MgCl2, 10 mM HEPES, 10 mM EGTA. Osmolarity was adjusted to 285±5 mosmol (milliosmol) 1^−1 and pH to 7.3-7.4 with KOH. Open pipette resistance was 2-5 MΩ (mega-ohms), and access resistance during recordings was <20 MΩ. Currents were recorded (Axopatch 200B, Axon Instruments) in neurons voltage clamped at holding potentials of −50 mV (milli-volt). The records were filtered at 1 kHz (kilohertz) and sampled at 20 kHz. Drugs were obtained from Sigma Aldrich, with the exception of NEM (N-ethylmaledomide) (Calbiochem), and DL-AP5, NF023, KT5720, U73122 and thapsigargin (all Tocris Cookson), drugs applied in superfusion were applied for 15-20 minutes prior to light stimulation.
(§2) Light stimuli were generated using a Cairn Optoscan Xenon arc source comprising a slit monochromator. Unless otherwise stated al stimuli were 10 sec in duration with a 20 nm half-bandwidth. Irradiance was measured using an optical powermeter (Macam Photometrics) and converted to photon flux. […] The nature of glutamate receptor expression in Neuro-2a cells remains ambiguous, nonetheless we excluded the possibility that this might be the origin of the melanopsin light response by application of the selective NMDA antagonist APV (2-amino-5-phosphonovaleric acid) (100 μM) which had no effect upon the light sensitive current (data not shown)

[2] = target: T1, human melanopsin (Homo sapiens, UniProt Q9UHM6); assay: Retinaldehyde dependence of the light evoked current in melanopsin expressing cells; format: cell-based; settings: for light evoked peak inward current after retinal preloading / change in 420 nm light evoked current after 540 nm light exposure: retinal 20 μM; for light evoked peak inward current after retinal preloading: 1 hour, 420 nm, 8×10^14 photons/cm^2/sec; for light-induced response to 540 nm stimulation itself: 20 nm half-bandwidth; for change in 420 nm light evoked current after 540 nm light exposure: 540 nm 10 mins (2×10^14 photons/cm^2/s), retest 420 nm 10 sec
T1 construct: expressed in transfected cells; host or cells: Mouse Neuro-2a cells (ATCC CCL-131), lipofectamine transfection with the pCMS-EGFP-based melanopsin vector, differentiated with retinoic acid
T1 sequence (Q9UHM6 1-478): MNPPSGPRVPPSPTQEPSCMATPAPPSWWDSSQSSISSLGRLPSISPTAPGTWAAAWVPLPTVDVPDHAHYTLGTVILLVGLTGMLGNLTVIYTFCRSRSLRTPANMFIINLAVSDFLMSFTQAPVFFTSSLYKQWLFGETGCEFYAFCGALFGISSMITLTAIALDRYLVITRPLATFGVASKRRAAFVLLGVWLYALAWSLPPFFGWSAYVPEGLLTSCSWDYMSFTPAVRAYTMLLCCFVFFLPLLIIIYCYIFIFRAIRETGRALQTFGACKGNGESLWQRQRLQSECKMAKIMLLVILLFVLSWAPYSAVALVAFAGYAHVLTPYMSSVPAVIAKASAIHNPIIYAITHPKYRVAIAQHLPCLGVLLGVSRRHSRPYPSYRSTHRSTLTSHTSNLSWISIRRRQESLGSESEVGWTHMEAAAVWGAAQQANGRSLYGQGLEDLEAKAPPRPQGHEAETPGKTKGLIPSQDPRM
Procedure: as §1, §2

[3] = test system: Neuro-2a cells; assay: Whole cell recordings of light evoked current in Neuro-2a cells expressing human melanopsin; format: cell-based, mouse
From the text: The full length coding sequence of human melanopsin was amplified from retinal cDNA using Pfu-Turbo DNA polymerase (Stratagene) and the following restriction tagged primers: […]
The product was cloned into the pLITMUS28 Vector (New England Biolabs) and sequenced to confirm that there was no deviation from the reported sequence NM_033282; SEQ ID NO: 1). The product was subsequently cloned into the pCMS-EGFP vector (BD Biosciences), such that expression would be driven by the CMV immediate early promoter. A C-terminal 6×His-tagged melanopsin construct was generated in a similar manner, using the following primers: […]
as §1, §2

[4] = test system: Neuro-2a cells; assay: Spectral sensitivity of the light evoked current (pCI-neo human melanopsin); format: cell-based, mouse; settings: 11-cis retinal, mean±SEM
Procedure: For analyses of spectral sensitivity EGFP expression was excluded by employing the pCI-neo mammalian expression vector (Promega).
as §1, §2
In order to assess the correspondence, if any, between the Neuro-2a light response and these action spectra we assessed cellular responses to stimuli ranging from 300 to 540 nm in cells transfected with a pCI-neo expression vector (Promega) driving human melanopsin. EGFP was not included as a marker of expression for these experiments because of its light absorbing and fluorescent properties. […]

Molecule: COc1ccc2c(c1)CC[C@@H]1[C@@H]2CC[C@]2(C)[C@@H](NCCCCCCN3C(=O)C=CC3=O)CC[C@@H]12 [U73122]
effect on light induced current ([1]; 50 μM): did not affect; also recorded: did not block

light evoked peak inward current after retinal preloading ([2]; listed as 11-cis-retinal): more responsive
Molecule: CC1=C(/C=C/C(C)=C/C=C/C(C)=C/C=O)C(C)(C)CCC1 [11-cis retinal]
light evoked peak inward current after retinal preloading [2]: Significant photosensitivity; also recorded: significantly more effective

Molecule: NC(CCCP(=O)(O)O)C(=O)O (racemic) [APV, 2-amino-5-phosphonovaleric acid]
effect upon the light sensitive current ([1]; 100 μM, data not shown): no effect

Molecule: Cc1ccc(C(=O)Nc2ccc(S(=O)(=O)O)c3cc(S(=O)(=O)O)cc(S(=O)(=O)O)c23)cc1NC(=O)c1cccc(NC(=O)Nc2cccc(C(=O)Nc3cc(C(=O)Nc4ccc(S(=O)(=O)O)c5cc(S(=O)(=O)O)cc(S(=O)(=O)O)c45)ccc3C)c2)c1 [suramin]
effect on photoresponses ([1]; 100 μM in bath): largely abolished; also recorded: abolish

Molecule: O=C(Nc1cccc(C(=O)Nc2ccc(S(=O)(=O)O)c3cc(S(=O)(=O)O)cc(S(=O)(=O)O)c23)c1)Nc1cccc(C(=O)Nc2ccc(S(=O)(=O)O)c3cc(S(=O)(=O)O)cc(S(=O)(=O)O)c23)c1 [NF023]
effect on light evoked currents ([1]; up to 1 μM in bath): no effect; also recorded: did not antagonise

Molecule: C/C=C(/C)C(=O)O[C@H]1C(C)=C2[C@H]([C@@H]1OC(=O)CCCCCCC)[C@@](C)(OC(C)=O)C[C@H](OC(=O)CCC)[C@@]1(O)[C@H]2OC(=O)[C@@]1(C)O [thapsigargin]
effect on light evoked current ([1]; 5 to 10 μM in zero calcium perfusates for 15-20 mins): abolished

Molecule: CCN1C(=O)C=CC1=O [NEM, N-ethylmaledomide]
effect on light evoked currents ([1]; 50 μM in bath): no effect
effect on light evoked currents ([1]; 50 μM in bath, listed as N-ethyl): did not antagonise

Molecule: [Cd+2] [Cd^2+]
effect on light evoked current ([1]; 100 μM, and/or removal of calcium from perfusate): little significant effect

Molecule: CCCCCCOC(=O)[C@]1(O)C[C@@H]2O[C@@]1(C)n1c3ccccc3c3c4c(c5c6ccccc6n2c5c31)C(=O)NC4 [KT5720]
effect on light induced current ([1]; 1 μM): did not affect

light-induced response to 540 nm stimulation itself [2]: did not in itself evoke
light evoked peak inward current after retinal preloading [2]: modest light response
Molecule: CC1=C(/C=C/C(C)=C/C=C/C(C)=C/C=O)C(C)(C)CCC1 [all-trans retinal]
change in 420 nm light evoked current after 540 nm light exposure [2]: large increase; also recorded: three-fold increase

Molecule: Nc1nc2c(nc(Br)n2[C@@H]2O[C@@H]3COP(=O)(O)O[C@H]3[C@H]2O)c(=O)[nH]1 [8-Br-cGMP]
effect on light response ([1]; 1 mM in pipette): abolished
effect on light induced current ([1]; in patch pipette, 100 μM and 1 nM): dose dependent suppression

Molecule: Nc1nc2c(ncn2[C@@H]2O[C@H](COP(=O)(O)OP(=O)(O)OP(O)(O)=S)[C@@H](O)[C@H]2O)c(=O)[nH]1 [GTPγS]
effect on photoresponses ([1]; 1 mM in patch pipette): largely abolished; also recorded: abolish

Molecule: Cn1cc(C2=C(c3cn(CCCSC(=N)N)c4ccccc34)C(=O)NC2=O)c2ccccc21 [RO31-8220]
effect on light induced current ([1]; 100 nM): did not affect

light-induced response to 540 nm stimulation itself [2]: did not in itself evoke
light evoked peak inward current after retinal preloading [2]: Significant photosensitivity
light evoked peak inward current after retinal preloading ([2]; listed as 9-cis-retinal): more responsive
change in 420 nm light evoked current after 540 nm light exposure [2]: only a small potentiation
Molecule: CC1=C(/C=C/C(C)=C\C=C\C(C)=C\C=O)C(C)(C)CCC1 [9-cis retinal]

B1: human melanopsin: opsin photoactivator, SEQ ID NO:2, expressed from CMV-driven plasmid vector in Neuro-2a cells (protein, listed as Homo sapiens)
chain: MNSGRVSTSCMATASWWDSSSSSSGRSSTAGTWAAAWVTVDVDHAHYTGTVVGTGMGNTVYTCRSRSRTANMNAVSDMSTAVTSSYKWGTGCYACGAGSSMTTAADRYVTRATGVASKRRAAVGVWYAAWSGWSAYVGTSCSWDYMSTAVRAYTMCCVYCYRARTGRATGACKGNGSWRRSCKMAKMVVSWAYSAVAVAAGYAHVTYMSSVAVAKASAHNYATHKYRVAAHCGVGVSRRHSRYSYRSTHRSTTSHTSNSWSRRRSGSSVGWTHMAAAVWGAAANGRSYGGDAKARGHATGKTKGSDRM
modifications: Human melanopsin
light evoked current, intensity dependence ([3]; 420 nm, 10 sec, 8×10^13 or 8×10^14 photons/cm^2/sec, whole cell recording): intensity dependent sustained inward current
cellular response to light exposure ([3]; Neuro-2a cells expressing human melanopsin, 9-cis retinal 20 μM, 1 hour, 420 nm, 10 sec stimulus): marked cellular response
light sensitivity ([3]; absence of exogenous retinal): not light sensitive
reversal potential of the response ([3]; light-activated current, Neuro-2a cells): 0 to −10 mV
peak light evoked slope conductance ([3]; voltage ramp −100 to +100 mV, linear between −100 and −50 mV, 9-cis retinal, mean±SEM, n=13): 6.46±0.82 nS
light evoked current ([4]; 360 nm, 3×10^14 photons/cm^2/s): 72.5±19 pA
light evoked current ([4]; 420 nm, 8×10^14 photons/cm^2/s): 80±11 pA
light evoked current ([4]; 440 nm, 2×10^15 photons/cm^2/s): 32.7±14 pA
light evoked current ([4]; 490 nm): 8.5±1.2 pA
light evoked current ([4]; 540 nm, 2×10^14 photons/cm^2/s): 2.0±1.2 pA
